Here are results for 2 molecules from US9422267B2, “Fused pyrimidine compounds and use thereof” (Medivation Technologies, Inc., priority 2012, dated 2016).

The subject of assay [1] is ZR-75-1. The assay is described as follows: Cell Titer-Glo cell viability: ZR-75-1. The class given is cell-based. The conditions noted are these: Homo sapiens; ZR-75-1, breast cancer; 72 h. The protocol: Compound nos. […] This panel of cell lines includes an ER− breast carcinoma, primary breast ductal carcinoma, prostate adenocarcinoma, mammary adenocarcinoma, mammary ductal carcinoma, mammary ductal carcinoma, ovary adenocarcinoma, ER+ breast carcinoma, ER-HER2+ mammary ductal carcinoma and an ER+ mammary ductal carcinoma, respectively.
(§1) This assay quantitates the ATP present in order to determine the number of viable cells in culture. Briefly, the compounds were incubated with the cells for 72 h, followed by cell lysis. The resulting luminescent signal is proportional to the amount of ATP present and, therefore, directly proportional to the number of cells present in culture.
In general terms: Cellular ATP, detected with luciferase, serves as a proxy for viable cell number.

Assay [2] concerns the target AurB (Homo sapiens, UniProt Q96GD4). The assay is described as follows: Caliper kinase profiling: AurB.
Experimental: (§2) The compound was tested at concentrations of 1.0×10^−8 and 1.0×10^−9 M in the RapidKinase192™ panel in duplicate. […] The screening was performed using the Caliper EZReader2, a 4-sipper LabChip, and ProfilerPro Kinase Selectivity Assay Kits 1 and 2. The assay measures the conversion of a fluorescent peptide substrate to a phosphorylated product. Briefly, the reaction mixture was introduced through a capillary sipper onto the microfluidic chip, where the substrate and product were electrophoretically separated and detected by laser-induced fluorescence. The time-dependent fluorescence signal indicates the extent of the reaction.
(§3) The assays were conducted using the Caliper LabChip 3000 and a 12-sipper LabChip as described above.
Assay [3] has as its target T1, PYK2 (Homo sapiens, UniProt Q14289).
T1 construct: purchased Caliper LifeSciences (ProfilerPro Kinase Selectivity Assay Kits)
The experiment in a line: Caliper kinase profiling: PYK2. The class given is biochemical. To be noted: for inhibition at 0.01 µM: PYK2, 10 nM, read-out: Average % Inh @ 10 nM.

Assay [4] has as its target T2, AurC (Homo sapiens, UniProt Q9UQB9).
T2 sequence (Q9UQB9 1-309): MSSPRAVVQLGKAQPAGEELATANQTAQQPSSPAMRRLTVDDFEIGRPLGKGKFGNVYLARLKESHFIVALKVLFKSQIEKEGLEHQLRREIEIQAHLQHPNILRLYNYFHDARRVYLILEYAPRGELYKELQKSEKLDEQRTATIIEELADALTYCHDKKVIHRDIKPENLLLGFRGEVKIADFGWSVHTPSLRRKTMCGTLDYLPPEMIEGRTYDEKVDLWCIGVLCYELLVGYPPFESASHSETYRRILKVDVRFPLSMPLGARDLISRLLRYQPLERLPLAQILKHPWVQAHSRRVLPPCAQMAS
The assay is described as follows: Caliper kinase profiling: AurC.
Experimental: as §2, §3

Assay [5] relates to PANC-1. The experiment in a line: Cell viability: pancreatic cancer cell line PANC-1. The format is cell-based. To be noted: Homo sapiens; PANC-1 pancreatic cancer cell line. The protocol: as §1
Analogous studies utilizing pancreatic cancer cell lines such as ASPC-1 and PANC-1 can be performed with compounds of the invention.

In assay [6] the target is T3, Mer (Homo sapiens, UniProt Q12866).
T3 construct: purchased Caliper LifeSciences (ProfilerPro Kinase Selectivity Assay Kits)
T3 sequence (Q12866 21-999): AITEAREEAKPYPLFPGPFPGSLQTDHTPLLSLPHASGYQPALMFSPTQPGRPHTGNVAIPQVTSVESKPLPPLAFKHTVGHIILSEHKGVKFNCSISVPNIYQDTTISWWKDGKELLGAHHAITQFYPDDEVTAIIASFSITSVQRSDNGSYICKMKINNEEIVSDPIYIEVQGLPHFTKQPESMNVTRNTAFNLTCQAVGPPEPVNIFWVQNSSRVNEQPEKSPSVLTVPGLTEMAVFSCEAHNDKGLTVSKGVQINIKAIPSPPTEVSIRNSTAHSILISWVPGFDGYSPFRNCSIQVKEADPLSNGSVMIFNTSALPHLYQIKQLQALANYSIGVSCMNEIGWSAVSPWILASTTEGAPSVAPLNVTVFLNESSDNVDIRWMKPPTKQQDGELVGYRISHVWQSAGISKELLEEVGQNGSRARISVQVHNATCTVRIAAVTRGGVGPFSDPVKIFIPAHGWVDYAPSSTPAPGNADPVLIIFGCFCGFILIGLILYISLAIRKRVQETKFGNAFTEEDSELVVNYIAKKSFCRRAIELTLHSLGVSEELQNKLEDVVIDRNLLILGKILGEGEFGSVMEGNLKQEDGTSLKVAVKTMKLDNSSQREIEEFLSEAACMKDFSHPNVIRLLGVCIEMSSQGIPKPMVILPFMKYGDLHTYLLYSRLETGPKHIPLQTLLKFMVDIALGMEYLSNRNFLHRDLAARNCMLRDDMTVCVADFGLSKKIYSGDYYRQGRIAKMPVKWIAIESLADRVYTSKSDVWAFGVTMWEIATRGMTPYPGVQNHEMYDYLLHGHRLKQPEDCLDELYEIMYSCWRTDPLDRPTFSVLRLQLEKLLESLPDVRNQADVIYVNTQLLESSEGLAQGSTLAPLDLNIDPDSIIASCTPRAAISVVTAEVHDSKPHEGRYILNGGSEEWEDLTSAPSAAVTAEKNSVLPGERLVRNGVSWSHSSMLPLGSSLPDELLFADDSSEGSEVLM
The assay is described as follows: Caliper kinase profiling: Mer. To be noted: for inhibition at 0.01 µM: 10 nM, read-out: Average % Inh @ 10 nM. The format is biochemical.

Assay [7] addresses FGFR3(K650E) (Homo sapiens, UniProt P22607, K650E). The experiment in a line: Caliper kinase profiling: FGFR3(K650E). The class given is biochemical. The conditions noted are these: read-out: Average % Inh @ 1 μM.
In assay [8] the target is EPHA5 (Homo sapiens, UniProt P54756). The assay is described as follows: Caliper kinase profiling: EPHA5. The class given is biochemical. The conditions noted are these: EPHA5, 1 μM; read-out: Average % Inh @ 1 μM.
Chain of EPHA5 (P54756 25-1037): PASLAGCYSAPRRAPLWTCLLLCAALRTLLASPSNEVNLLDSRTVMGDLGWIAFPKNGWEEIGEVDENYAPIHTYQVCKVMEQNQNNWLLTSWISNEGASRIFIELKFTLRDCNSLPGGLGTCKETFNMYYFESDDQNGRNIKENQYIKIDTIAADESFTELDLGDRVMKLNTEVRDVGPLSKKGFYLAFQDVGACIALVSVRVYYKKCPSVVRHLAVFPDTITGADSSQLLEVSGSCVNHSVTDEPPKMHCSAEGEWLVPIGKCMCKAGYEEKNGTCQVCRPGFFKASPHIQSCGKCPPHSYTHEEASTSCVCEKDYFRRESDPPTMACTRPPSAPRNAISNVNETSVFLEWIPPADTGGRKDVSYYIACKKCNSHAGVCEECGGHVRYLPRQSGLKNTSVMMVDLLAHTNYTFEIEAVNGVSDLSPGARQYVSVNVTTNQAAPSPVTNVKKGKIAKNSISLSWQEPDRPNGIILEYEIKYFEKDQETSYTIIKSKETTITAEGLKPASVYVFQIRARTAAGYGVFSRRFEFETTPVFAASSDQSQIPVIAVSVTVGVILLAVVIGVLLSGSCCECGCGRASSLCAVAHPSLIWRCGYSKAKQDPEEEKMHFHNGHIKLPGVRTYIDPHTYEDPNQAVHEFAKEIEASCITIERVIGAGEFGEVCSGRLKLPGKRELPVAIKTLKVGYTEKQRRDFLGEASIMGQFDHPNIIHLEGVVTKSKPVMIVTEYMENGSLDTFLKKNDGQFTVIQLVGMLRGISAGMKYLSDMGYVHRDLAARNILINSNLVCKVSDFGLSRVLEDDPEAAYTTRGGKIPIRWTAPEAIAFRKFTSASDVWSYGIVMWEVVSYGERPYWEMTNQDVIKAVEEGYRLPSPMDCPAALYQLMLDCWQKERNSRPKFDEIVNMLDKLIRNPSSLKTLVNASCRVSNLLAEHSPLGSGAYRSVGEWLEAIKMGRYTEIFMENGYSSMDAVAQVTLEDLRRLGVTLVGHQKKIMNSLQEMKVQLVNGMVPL
Assay [9] addresses DCAMKL2 (Homo sapiens, UniProt Q8N568). The assay is described as follows: Caliper kinase profiling: DCAMKL2. The class given is biochemical. To be noted: DCAMKL2, 1 μM; read-out: Average % Inh @ 1 μM.
Assay [10] deals with T4, Abl(T315I) (Homo sapiens, UniProt P00519, T315I).
T4 construct: purchased Caliper LifeSciences (ProfilerPro Kinase Selectivity Assay Kits)
The experiment in a line: Caliper kinase profiling: Abl(T315I). The format is biochemical.

Assay [11] has as its target T5, Arg (Homo sapiens, UniProt P42684).
T5 construct: purchased Caliper LifeSciences (ProfilerPro Kinase Selectivity Assay Kits)
The assay is described as follows: Caliper kinase profiling: Arg. The class given is biochemical.

The test system of assay [12] is AMPK. The experiment in a line: Caliper kinase profiling: AMPK. The format is biochemical.
Experimental: as §2
Assay [13] has as its target FLT4 (Homo sapiens, UniProt P35916). The experiment in a line: Caliper kinase profiling: FLT4. The class given is biochemical. To be noted: FLT4, 1 μM; read-out: Average % Inh @ 1 μM.
Assay [14] addresses T6, ABL (Homo sapiens, UniProt P00519).
T6 construct: purchased Caliper LifeSciences (ProfilerPro Kinase Selectivity Assay Kits)
The experiment in a line: Caliper kinase profiling: ABL. The format is biochemical. To be noted: read-out: Average % Inh @ 1 μM.

For assay [15], the target named is ITK (Homo sapiens, UniProt Q08881). The assay is described as follows: Caliper kinase profiling: ITK. The format is biochemical. The conditions noted are these: read-out: Average % Inh @ 1 μM.
Assay [16] has as its target T7, ABL1(Y253F) (Homo sapiens, UniProt P00519, Y253F).
T7 construct: purchased Caliper LifeSciences (ProfilerPro Kinase Selectivity Assay Kits)
The assay is described as follows: Caliper kinase profiling: ABL1(Y253F). The format is biochemical. To be noted: read-out: Average % Inh @ 1 μM.

Setting [17] is: read-out: Average % Inh @ 10 nM.
The mark [18] stands for this setting: read-out: Average % Inh @ 100 nM.
Setting [19] is: 10 nM, read-out: Average % Inh @ 10 nM.
Setting [20] is: 100 nM, read-out: Average % Inh @ 100 nM.
The mark [21] stands for this setting: 1 μM, read-out: Average % Inh @ 1 μM.

T1 sequence (Q14289 whole entry): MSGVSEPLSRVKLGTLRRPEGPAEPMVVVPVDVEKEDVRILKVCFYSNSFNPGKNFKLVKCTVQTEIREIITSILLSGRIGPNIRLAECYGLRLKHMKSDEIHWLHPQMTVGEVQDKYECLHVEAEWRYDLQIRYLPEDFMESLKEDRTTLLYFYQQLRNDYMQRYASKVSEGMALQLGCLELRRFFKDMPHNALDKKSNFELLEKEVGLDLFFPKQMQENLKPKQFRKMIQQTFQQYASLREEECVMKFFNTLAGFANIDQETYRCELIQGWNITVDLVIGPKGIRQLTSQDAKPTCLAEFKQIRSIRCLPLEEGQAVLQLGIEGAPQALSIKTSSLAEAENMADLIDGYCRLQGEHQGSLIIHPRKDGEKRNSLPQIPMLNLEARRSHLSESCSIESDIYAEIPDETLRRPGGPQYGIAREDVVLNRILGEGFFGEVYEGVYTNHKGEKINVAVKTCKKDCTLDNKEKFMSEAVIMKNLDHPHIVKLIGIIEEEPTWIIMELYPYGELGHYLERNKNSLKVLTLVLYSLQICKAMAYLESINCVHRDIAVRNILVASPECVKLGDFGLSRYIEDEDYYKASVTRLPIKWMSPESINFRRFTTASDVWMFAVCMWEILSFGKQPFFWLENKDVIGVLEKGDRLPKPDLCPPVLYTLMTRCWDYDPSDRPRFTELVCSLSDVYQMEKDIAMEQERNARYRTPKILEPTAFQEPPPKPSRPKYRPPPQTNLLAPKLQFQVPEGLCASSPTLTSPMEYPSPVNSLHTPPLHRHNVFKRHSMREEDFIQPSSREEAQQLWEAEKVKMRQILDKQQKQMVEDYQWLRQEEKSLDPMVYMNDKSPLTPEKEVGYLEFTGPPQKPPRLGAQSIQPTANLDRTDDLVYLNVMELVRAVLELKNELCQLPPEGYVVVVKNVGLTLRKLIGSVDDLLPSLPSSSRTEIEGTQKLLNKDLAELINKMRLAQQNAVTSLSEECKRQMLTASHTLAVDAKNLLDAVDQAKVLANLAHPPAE
T5 sequence (P42684 whole entry): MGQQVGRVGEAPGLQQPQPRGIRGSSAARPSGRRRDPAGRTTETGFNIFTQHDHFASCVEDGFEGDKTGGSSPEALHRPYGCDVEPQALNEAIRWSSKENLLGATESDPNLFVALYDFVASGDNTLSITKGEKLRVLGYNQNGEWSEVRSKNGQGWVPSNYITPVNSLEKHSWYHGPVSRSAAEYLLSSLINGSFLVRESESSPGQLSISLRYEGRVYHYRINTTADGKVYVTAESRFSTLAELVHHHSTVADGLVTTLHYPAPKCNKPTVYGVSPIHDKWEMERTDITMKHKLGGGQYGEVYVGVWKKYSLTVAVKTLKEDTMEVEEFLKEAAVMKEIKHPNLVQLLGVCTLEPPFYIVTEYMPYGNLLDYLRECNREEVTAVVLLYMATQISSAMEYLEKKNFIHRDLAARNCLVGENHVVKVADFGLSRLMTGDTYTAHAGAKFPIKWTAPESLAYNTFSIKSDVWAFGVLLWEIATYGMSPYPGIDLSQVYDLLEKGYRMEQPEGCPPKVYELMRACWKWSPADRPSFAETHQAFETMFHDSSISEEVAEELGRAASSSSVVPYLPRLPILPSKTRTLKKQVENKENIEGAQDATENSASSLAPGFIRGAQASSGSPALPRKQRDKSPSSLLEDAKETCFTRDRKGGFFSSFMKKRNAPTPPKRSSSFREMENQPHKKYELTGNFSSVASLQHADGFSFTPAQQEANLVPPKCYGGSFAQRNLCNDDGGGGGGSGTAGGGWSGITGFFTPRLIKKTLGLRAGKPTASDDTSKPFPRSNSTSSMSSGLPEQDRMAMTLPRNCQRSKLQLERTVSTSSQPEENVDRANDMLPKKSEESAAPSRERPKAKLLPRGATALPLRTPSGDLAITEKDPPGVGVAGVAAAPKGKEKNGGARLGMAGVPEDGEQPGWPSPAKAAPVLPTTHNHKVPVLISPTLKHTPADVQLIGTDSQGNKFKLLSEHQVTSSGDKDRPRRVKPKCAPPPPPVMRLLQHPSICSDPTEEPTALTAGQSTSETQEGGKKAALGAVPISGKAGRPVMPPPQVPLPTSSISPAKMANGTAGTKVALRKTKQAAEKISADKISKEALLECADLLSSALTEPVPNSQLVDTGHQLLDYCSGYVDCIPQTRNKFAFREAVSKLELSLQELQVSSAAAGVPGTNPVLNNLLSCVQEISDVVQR
Chain of AurB (Q96GD4 whole entry): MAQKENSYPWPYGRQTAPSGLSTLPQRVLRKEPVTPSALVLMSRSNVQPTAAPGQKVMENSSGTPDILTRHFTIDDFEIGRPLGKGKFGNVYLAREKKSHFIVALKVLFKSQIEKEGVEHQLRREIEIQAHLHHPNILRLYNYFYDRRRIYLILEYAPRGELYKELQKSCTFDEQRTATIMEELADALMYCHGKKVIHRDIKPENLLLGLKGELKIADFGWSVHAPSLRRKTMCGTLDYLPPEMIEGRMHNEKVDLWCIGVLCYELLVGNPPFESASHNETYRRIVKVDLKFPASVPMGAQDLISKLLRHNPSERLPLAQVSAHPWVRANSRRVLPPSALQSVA
Chain of FLT4 (P35916 25-1363): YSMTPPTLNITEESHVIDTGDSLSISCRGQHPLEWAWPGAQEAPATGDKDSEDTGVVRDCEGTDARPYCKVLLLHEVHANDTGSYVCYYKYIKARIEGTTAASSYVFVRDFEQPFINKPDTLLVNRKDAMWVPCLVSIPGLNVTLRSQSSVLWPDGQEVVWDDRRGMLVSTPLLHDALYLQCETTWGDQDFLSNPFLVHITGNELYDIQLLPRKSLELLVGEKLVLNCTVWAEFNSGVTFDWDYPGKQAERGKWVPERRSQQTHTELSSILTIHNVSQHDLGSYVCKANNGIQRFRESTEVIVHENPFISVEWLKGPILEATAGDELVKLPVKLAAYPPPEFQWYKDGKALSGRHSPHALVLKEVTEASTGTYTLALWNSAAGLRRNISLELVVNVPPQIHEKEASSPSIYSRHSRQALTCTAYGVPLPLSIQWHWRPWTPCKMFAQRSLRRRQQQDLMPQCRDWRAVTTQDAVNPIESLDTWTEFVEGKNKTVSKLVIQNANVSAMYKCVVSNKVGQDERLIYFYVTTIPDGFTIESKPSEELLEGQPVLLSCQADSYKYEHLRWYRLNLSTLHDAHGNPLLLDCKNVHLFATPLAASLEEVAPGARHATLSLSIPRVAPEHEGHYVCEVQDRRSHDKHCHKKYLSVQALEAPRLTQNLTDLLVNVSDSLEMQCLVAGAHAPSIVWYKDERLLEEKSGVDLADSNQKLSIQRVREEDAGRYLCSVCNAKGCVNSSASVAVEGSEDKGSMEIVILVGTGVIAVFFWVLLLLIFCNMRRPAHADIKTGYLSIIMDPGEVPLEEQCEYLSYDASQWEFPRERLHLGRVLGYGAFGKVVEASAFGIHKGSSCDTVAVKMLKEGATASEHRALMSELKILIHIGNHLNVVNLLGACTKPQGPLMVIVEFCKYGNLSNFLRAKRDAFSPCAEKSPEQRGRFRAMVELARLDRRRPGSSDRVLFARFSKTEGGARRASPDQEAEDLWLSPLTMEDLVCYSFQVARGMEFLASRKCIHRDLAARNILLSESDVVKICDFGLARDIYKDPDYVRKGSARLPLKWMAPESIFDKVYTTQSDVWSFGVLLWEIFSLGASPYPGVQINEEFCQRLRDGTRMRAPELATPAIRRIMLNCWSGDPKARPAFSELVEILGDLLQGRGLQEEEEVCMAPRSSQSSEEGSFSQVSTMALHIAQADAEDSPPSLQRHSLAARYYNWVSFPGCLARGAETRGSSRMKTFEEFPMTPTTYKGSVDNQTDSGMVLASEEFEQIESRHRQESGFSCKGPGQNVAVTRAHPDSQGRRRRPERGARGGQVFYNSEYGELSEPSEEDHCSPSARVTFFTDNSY

With `CC(C)c1cc(Nc2nc(N3CCCC3C(=O)Nc3ccc(F)nc3)nc3c2CCC3)n[nH]1` (single isomer, unassigned) [Compound 8b], the IC50 in [1] is less than 100000 nM; in assay [2], 74.7 nM; in assay [4], 41.4 nM; in assay [5], 3660 nM; in [6] (8 concentrations 3.0×10^−7 to 1.0×10^−10 M), 3.84 nM. Moreover, the inhibition at 0.001 µM in assay [3] (PYK2, 1 nM, read-out: Average % Inh @ 1 nM) is less than 39%; in assay [6] (1 nM, read-out: Average % Inh @ 1 nM), less than 39%. The inhibition at 0.01 µM in assay [3] was 40 to 59%; in assay [6], greater than 60%.

For `O=C(Nc1ccc(F)nc1)C1CCCN1c1nc2c(c(Nc3cc(C4CC4)[nH]n3)n1)CCC2` (single isomer, unassigned) [Compound 2b, 1-(4-(5-cyclopropyl-1H-pyrazol-3-ylamino)-6,7-dihydro-5H-cyclopenta[d]pyrimidin-2-yl)-N-(6-fluoropyridin-3-yl)pyrrolidine-2-carboxamide], the inhibition at 1 µM in assay [7] was greater than 60%; in [2] (read-out: Average % Inh @ 1 μM), greater than 60%; in assay [3] (PYK2, 1 μM, read-out: Average % Inh @ 1 μM) it was greater than 60%; in assay [8], greater than 60%; in assay [4] (read-out: Average % Inh @ 1 μM), greater than 60%; in assay [9], greater than 60%. Besides, the inhibition at 1 µM in assay [10] (setting [21]) was greater than 60%; in assay [6] (setting [21]) it was greater than 60%; in assay [11] (setting [21]), greater than 60%; in assay [13] it was 40 to 59%; in assay [14], 40 to 59%; in assay [15], 40 to 59%. For the same molecule, in assay [16], the inhibition at 1 µM was in the range of 40 to 59%. In addition, the inhibition at 0.01 µM in [2] (setting [17]) was 40 to 59%; in assay [3] it was less than 39%; in assay [4] (setting [17]), greater than 60%; in assay [10] (setting [19]), less than 39%; in [6], 40 to 59%; in [11] (setting [19]), less than 39%. The inhibition at 0.1 µM in assay [2] (setting [18]) was greater than 60%; in assay [3] (PYK2, 100 nM, read-out: Average % Inh @ 100 nM), greater than 60%; in assay [4] (setting [18]), greater than 60%; in assay [10] (setting [20]), less than 39%; in assay [6] (setting [20]), greater than 60%; in assay [11] (setting [20]), less than 39%. In addition, in assay [12] (10 nM), the “Average % Inh @ 10 nM” value is on record as “+ (+=Low)”. The “Average % Inh @ 100 nM” value in assay [12] (100 nM) is listed as “++ (++=Med)”. In addition, in assay [12] (1 μM), the “Average % Inh @ 1 μM” value is reported as “+++ (+++=High)”.

A word on the IC50: it is the concentration that gives 50% inhibition. High values mean weaker potency, low ones greater potency.
